Laboratory results published in patent publication US8192962B2, “Processes for detecting toxic substances” (Daikin Industries, Ltd., priority 2001, dated 2012).

System: Transport facilitation protein genes
Test: DNA chip mRNA expression in yeast, transport facilitation protein genes (Table 5)
Format: cell-based, Saccharomyces cerevisiae S288C
Outline: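 Whole-genome yeast DNA chip hybridization (65° C., >12 h) of Cy-labeled cDNA from S288C cells exposed 2 h at 25° C. to a sub-lethal toxicant dose in YPD; value is intensity relative to chemical-free control.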

“manganese ethylenebis(dithiocarbamate) [(8)]” was tested, and the “The level of expressed mRNA in the presence of chemical substance/The level of expressed mRNA in the absence of chemical substance” value (yeast gene YGR224W) was 0.6, the “The level of expressed mRNA in the presence of chemical substance/The level of expressed mRNA in the absence of chemical substance” value (yeast gene YGR260W) was 0.5 and the “The level of expressed mRNA in the presence of chemical substance/The level of expressed mRNA in the absence of chemical substance” value (yeast gene YGR281W) was 0.7. For the same substance, the “The level of expressed mRNA in the presence of chemical substance/The level of expressed mRNA in the absence of chemical substance” value (yeast gene YHL035C) was 1.1, the “The level of expressed mRNA in the presence of chemical substance/The level of expressed mRNA in the absence of chemical substance” value (yeast gene YHL040C) was 1.5 and the “The level of expressed mRNA in the presence of chemical substance/The level of expressed mRNA in the absence of chemical substance” value (yeast gene YHL047C) was 1.5. For the same substance, the “The level of expressed mRNA in the presence of chemical substance/The level of expressed mRNA in the absence of chemical substance” value (yeast gene YHR026W) was 1.6, the “The level of expressed mRNA in the presence of chemical substance/The level of expressed mRNA in the absence of chemical substance” value (yeast gene YHR092C) was 1.5 and the “The level of expressed mRNA in the presence of chemical substance/The level of expressed mRNA in the absence of chemical substance” value (yeast gene YHR094C) was 1.2. For the same substance, the “The level of expressed mRNA in the presence of chemical substance/The level of expressed mRNA in the absence of chemical substance” value (yeast gene YHR175W) was 0.9, the “The level of expressed mRNA in the presence of chemical substance/The level of expressed mRNA in the absence of chemical substance” value (yeast gene YIL006W) was 0.6 and the “The level of expressed mRNA in the presence of chemical substance/The level of expressed mRNA in the absence of chemical substance” value (yeast gene YIL022W) was 0.8. The “The level of expressed mRNA in the presence of chemical substance/The level of expressed mRNA in the absence of chemical substance” value (yeast gene YIL056W) was 0.7, the “The level of expressed mRNA in the presence of chemical substance/The level of expressed mRNA in the absence of chemical substance” value (yeast gene YIL088C) was 0.8 and the “The level of expressed mRNA in the presence of chemical substance/The level of expressed mRNA in the absence of chemical substance” value (yeast gene YJL034W) was 1.5. For the same substance, the “The level of expressed mRNA in the presence of chemical substance/The level of expressed mRNA in the absence of chemical substance” value (yeast gene YJL212C) was 0.7, the “The level of expressed mRNA in the presence of chemical substance/The level of expressed mRNA in the absence of chemical substance” value (yeast gene YJL219W) was 1.5 and the “The level of expressed mRNA in the presence of chemical substance/The level of expressed mRNA in the absence of chemical substance” value (yeast gene YJR077C) was 0.8. For the same substance, the “The level of expressed mRNA in the presence of chemical substance/The level of expressed mRNA in the absence of chemical substance” value (yeast gene YJR106W) was 0.9, the “The level of expressed mRNA in the presence of chemical substance/The level of expressed mRNA in the absence of chemical substance” value (yeast gene YJR121W) was 0.7 and the “The level of expressed mRNA in the presence of chemical substance/The level of expressed mRNA in the absence of chemical substance” value (yeast gene YKL016C) was 1.6. The “The level of expressed mRNA in the presence of chemical substance/The level of expressed mRNA in the absence of chemical substance” value (yeast gene YKL146W) was 0.8, the “The level of expressed mRNA in the presence of chemical substance/The level of expressed mRNA in the absence of chemical substance” value (yeast gene YKR039W) was 1.0 and the “The level of expressed mRNA in the presence of chemical substance/The level of expressed mRNA in the absence of chemical substance” value (yeast gene YKR067W) was 0.8. For the same substance, the “The level of expressed mRNA in the presence of chemical substance/The level of expressed mRNA in the absence of chemical substance” value (yeast gene YLL028W) was 0.7, the “The level of expressed mRNA in the presence of chemical substance/The level of expressed mRNA in the absence of chemical substance” value (yeast gene YLR081W) was 0.9 and the “The level of expressed mRNA in the presence of chemical substance/The level of expressed mRNA in the absence of chemical substance” value (yeast gene YLR295C) was 1.2. The “The level of expressed mRNA in the presence of chemical substance/The level of expressed mRNA in the absence of chemical substance” value (yeast gene YLR348C) was 0.9, the “The level of expressed mRNA in the presence of chemical substance/The level of expressed mRNA in the absence of chemical substance” value (yeast gene YLR378C) was 0.5 and the “The level of expressed mRNA in the presence of chemical substance/The level of expressed mRNA in the absence of chemical substance” value (yeast gene YMR011W) was 1.1. The “The level of expressed mRNA in the presence of chemical substance/The level of expressed mRNA in the absence of chemical substance” value (yeast gene YMR162C) was 0.8, the “The level of expressed mRNA in the presence of chemical substance/The level of expressed mRNA in the absence of chemical substance” value (yeast gene YMR203W) was 0.7 and the “The level of expressed mRNA in the presence of chemical substance/The level of expressed mRNA in the absence of chemical substance” value (yeast gene YNL055C) was 0.7. The “The level of expressed mRNA in the presence of chemical substance/The level of expressed mRNA in the absence of chemical substance” value (yeast gene YNL259C) was 1.5, the “The level of expressed mRNA in the presence of chemical substance/The level of expressed mRNA in the absence of chemical substance” value (yeast gene YNR072W) was 0.9 and the “The level of expressed mRNA in the presence of chemical substance/The level of expressed mRNA in the absence of chemical substance” value (yeast gene YOL119C) was 2.0. For the same substance, the “The level of expressed mRNA in the presence of chemical substance/The level of expressed mRNA in the absence of chemical substance” value (yeast gene YOL156W) was 1.0, the “The level of expressed mRNA in the presence of chemical substance/The level of expressed mRNA in the absence of chemical substance” value (yeast gene YOL163W) was 1.1 and the “The level of expressed mRNA in the presence of chemical substance/The level of expressed mRNA in the absence of chemical substance” value (yeast gene YOR035C) was 1.0. For the same substance, the “The level of expressed mRNA in the presence of chemical substance/The level of expressed mRNA in the absence of chemical substance” value (yeast gene YOR130C) was 0.8, the “The level of expressed mRNA in the presence of chemical substance/The level of expressed mRNA in the absence of chemical substance” value (yeast gene YOR153W) was 0.5 and the “The level of expressed mRNA in the presence of chemical substance/The level of expressed mRNA in the absence of chemical substance” value (yeast gene YOR273C) was 0.6. For the same substance, the “The level of expressed mRNA in the presence of chemical substance/The level of expressed mRNA in the absence of chemical substance” value (yeast gene YOR316C) was 0.8, the “The level of expressed mRNA in the presence of chemical substance/The level of expressed mRNA in the absence of chemical substance” value (yeast gene YOR332W) was 1.5 and the “The level of expressed mRNA in the presence of chemical substance/The level of expressed mRNA in the absence of chemical substance” value (yeast gene YOR348C) was 0.8. The “The level of expressed mRNA in the presence of chemical substance/The level of expressed mRNA in the absence of chemical substance” value (yeast gene YPL036W) was 0.5, the “The level of expressed mRNA in the presence of chemical substance/The level of expressed mRNA in the absence of chemical substance” value (yeast gene YPL134C) was 1.3 and the “The level of expressed mRNA in the presence of chemical substance/The level of expressed mRNA in the absence of chemical substance” value (yeast gene YPL271W) was 0.9. The “The level of expressed mRNA in the presence of chemical substance/The level of expressed mRNA in the absence of chemical substance” value (yeast gene YPR192W) was 0.6 and the “The level of expressed mRNA in the presence of chemical substance/The level of expressed mRNA in the absence of chemical substance” value (yeast gene YPR194C) was 1.0.
